Laboratory results taken from PubChem BioAssay AID1645848.
Converted amounts (≈) assume the structure as drawn.

Conditions: buffer; pH 7.4; 6.0 h; 150.0 µM
Work on `CCCCCCOc1ccc(OC(=O)c2ccncc2)cc1` yielded a solubility kinetic of under 1 µg/mL. `CC(C)Oc1cccc(-c2cnc(N3CCC(C(N)=O)CC3)s2)c1` gave a solubility kinetic of 1.43 µg/mL (≈ 4.15 µM). In the case of `Cc1ccc(S(=O)(=O)Nc2cnccc2C(=O)Nc2ccc(S(=O)(=O)Nc3nccs3)cc2)cc1`, the solubility kinetic is reported as over 63 µg/mL. Molecule `O=C(Nc1ncc(Cc2ccc(C(F)(F)F)cc2)s1)c1ncc(-c2ccccc2)[nH]1` has a solubility kinetic of under 1 µg/mL. Work on `CCCCC(C)/C=C(C)/C=C(\C)C(=O)NC1=CC(O)(/C=C/C=C/C=C/C(=O)NC2=C(O)CCC2=O)C2OC2C1=O` (stereo unspecified) yielded a solubility kinetic of over 81 µg/mL. In the case of `CSc1ccc(C(=O)c2[nH]c(=O)[nH]c2C)cc1`, the solubility kinetic is reported as over 37 µg/mL. Work on `CC(=O)c1c(C)[nH]c(C(=O)Nc2ccc(C)c(S(=O)(=O)Nc3ccc(Br)cc3)c2)c1C` yielded a solubility kinetic of under 1 µg/mL. `CCOc1ccccc1C(=O)Nc1ccccc1C(=O)Nc1cccc(C(F)(F)F)c1` showed a solubility kinetic of under 1 µg/mL. Molecule `Cc1ccc(S(=O)(=O)n2cc(C(=O)Nc3ccc(-c4ccccc4)cc3)c3ccccc32)cc1` has a solubility kinetic of under 1 µg/mL. In the case of `CCN(CC)C(=O)N1c2ccccc2C=Cc2ccccc21`, the solubility kinetic is reported as 15.9 µg/mL (≈ 54.5 µM). Work on `COc1oc(-c2cccc3ccccc23)nc1C(=O)O` yielded a solubility kinetic of over 40 µg/mL. With `Cc1sc2c(c1C)C(c1ccc(Cl)cc1)=N[C@@H](CC(=O)Nc1ccc(OCCOCCOCCOCCNc3cccc4c3C(=O)N(C3CCC(=O)NC3=O)C4=O)cc1)c1nnc(C)n1-2` (stereo partly specified) the solubility kinetic was under 1 µg/mL. `COc1ccc2c(c1)CN(C(=O)CCN1CCC(Cc3ccccc3)CC1)CCS2` gave a solubility kinetic of over 63 µg/mL. `Cc1ccc(NC(=O)CSc2ncc(S(=O)(=O)c3ccc(C(C)C)cc3)c(=O)[nH]2)cc1C` showed a solubility kinetic of over 70 µg/mL. `Fc1ccccc1Nc1nc(-c2ccncc2)nc2ccccc12` showed a solubility kinetic of under 1 µg/mL. For `CCN1CCN(C(=O)c2cc(-c3ccc(F)cc3)c3nncn3n2)CC1`, the solubility kinetic was over 52 µg/mL. `CC(C)(C)c1ccc(S(=O)(=O)N2CCC(c3ccncc3)CC2)cc1` gave a solubility kinetic of under 1 µg/mL. For `COc1ccc(-c2cc(-c3cccc(NC(C)=O)c3)cn3cncc23)cn1`, the solubility kinetic was 6.93 µg/mL (≈ 19.3 µM). With `Clc1ccccc1-c1nnc2sc(-c3ccc4c(c3)OCO4)nn12` the solubility kinetic was under 1 µg/mL. `Cc1cnc(-c2ccccc2C2CC2)nc1NCc1ccc(-c2cccnc2)cc1` showed a solubility kinetic of under 1 µg/mL. Work on `O=C(NCCN1CCOCC1)C1CC(=O)N(c2n[nH]c3cc(Br)ccc23)C1` (stereo unspecified) yielded a solubility kinetic of 32.5 µg/mL (≈ 74.5 µM). With `Cc1ccc(S(=O)(=O)Nc2cc(C(=O)Nc3nc(-c4ccccc4)cs3)ccc2Cl)cc1` the solubility kinetic was under 1 µg/mL. For `NC(=O)C1CCN(c2ncc(-c3ccc4c(c3)OC(F)(F)O4)s2)CC1`, the solubility kinetic was under 1 µg/mL. With `Cc1ccc(C)c(SC2=NS(=O)(=O)c3ccccc32)c1` the solubility kinetic was under 1 µg/mL. In the case of `COc1ccc(-n2nc(C3CCCN(C(=O)Cc4ccccn4)C3)[nH]c2=O)cc1` (stereo unspecified), the solubility kinetic is reported as over 58 µg/mL. Work on `NC[C@H](O)c1ccc(O)c(O)c1` yielded a solubility kinetic of over 25 µg/mL. In the case of `CCOC(=O)c1ccc(-n2cnc3cc(C(=O)N4CCCCC4)ccc32)cc1`, the solubility kinetic is reported as over 56 µg/mL. With `Cc1ccc(S(=O)(=O)Nc2ccccc2C(=O)Nc2ccc(-c3ccccc3)nc2)cc1` the solubility kinetic was under 1 µg/mL. `COc1ccc(-c2nc3ccccc3s2)cc1NC(=O)c1ccc(F)cc1` gave a solubility kinetic of under 1 µg/mL. `Cc1c(Cl)cccc1NC(=O)CNS(=O)(=O)c1cccs1` gave a solubility kinetic of over 51 µg/mL. `O=C1Nc2ccccc2C12CC2c1cc(Cl)c(O)c(Cl)c1` (stereo unspecified) showed a solubility kinetic of under 1 µg/mL. `COc1cc(Cl)cn2c(-c3cccc(NC4CNC4)n3)cnc12` showed a solubility kinetic of over 49 µg/mL. In the case of `CC[C@H](C)[C@@H]([C@@H](CC(=O)N1CCC[C@H]1[C@H](OC)[C@@H](C)C(=O)N[C@@H](Cc1ccccc1)c1nccs1)OC)N(C)C(=O)[C@@H](NC(=O)[C@H](C(C)C)N(C)C)C(C)C`, the solubility kinetic is reported as 65.7 µg/mL (≈ 83.7 µM). For `CC1CCc2ccc(F)cc2N1S(=O)(=O)c1cccs1` (stereo unspecified), the solubility kinetic was 3.12 µg/mL (≈ 10 µM). With `CCc1ccccc1Nc1ncnc2c1cnn2-c1ccc(Cl)cc1` the solubility kinetic was under 1 µg/mL. In the case of `O=C(Nc1ccccc1)C1CCN(c2ncc(-c3ccc4c(c3)OCCCO4)s2)CC1`, the solubility kinetic is reported as under 1 µg/mL. Molecule `Cc1ccc(CSCc2ccc(C(=O)NC3CC3)o2)cc1` has a solubility kinetic of over 44 µg/mL. `CN1CCN(c2ccc(Nc3c4ccccc4nc4ccccc34)cc2)CC1` gave a solubility kinetic of over 54 µg/mL. For `CN(Cc1ccccc1)C(=O)c1ccc(S(=O)(=O)Nc2ccccc2)cc1`, the solubility kinetic was 22.5 µg/mL (≈ 59.2 µM). With `Cc1ccc(-c2cc(C(=O)Nc3ccc(C#N)cc3)c3ccccc3n2)cc1C` the solubility kinetic was under 1 µg/mL. In the case of `CC(C)(C)C(=O)C(Oc1ccc(Cl)cc1)n1ccnc1` (stereo unspecified), the solubility kinetic is reported as 29 µg/mL (≈ 99.1 µM). `Cc1ccc(C2=CSC(NC(=O)CSc3nncn3C)=NN2)cc1` showed a solubility kinetic of over 53 µg/mL. For `CCc1cc(Cl)c(OC)c(C(=O)NC[C@@H]2CCCN2CC)c1O.Cl`, the solubility kinetic was 27.3 µg/mL. Work on `Cc1nn2c(c1-c1ccccc1OCc1ccccc1)N(C(=O)Cc1ccc3c(c1)OCO3)CCC2` yielded a solubility kinetic of under 1 µg/mL. For `O=C(O)C(=O)O.Oc1ccccc1NCC(O)Cn1ccc2ccccc21` (stereo unspecified), the solubility kinetic was 8.51 µg/mL. In the case of `CCOC(=O)N1CCc2c(sc(NCc3ccc(N(C)C)cc3)c2C(=O)Nc2ccc(OC)cc2)C1`, the solubility kinetic is reported as 2 µg/mL (≈ 3.93 µM). Work on `O=C(Nc1nc(-c2ccccc2)cs1)c1ccncc1NS(=O)(=O)c1cccc2cccnc12` yielded a solubility kinetic of 39.8 µg/mL (≈ 81.6 µM). `Oc1cccc(-c2nc(N3CCOCC3)c3oc4ncccc4c3n2)c1` showed a solubility kinetic of under 1 µg/mL. With `S=C(NCCCc1cnc[nH]1)NCCCN(Cc1ccc(Cl)c(Cl)c1)c1ccc(Br)cn1` the solubility kinetic was under 1 µg/mL. `COc1ccc(CNC(=O)CCCn2nc(C)c3c(C)n(-c4ccc(C)cc4)nc3c2=O)cc1OC` showed a solubility kinetic of over 48 µg/mL. `CCOC(=O)c1cc(-c2ccco2)nc2c1c(C)nn2CCC#N` gave a solubility kinetic of 9.9 µg/mL (≈ 30.5 µM). `C=C1[C@@H](C)C2[C@H](Cc3ccccc3)NC(=O)[C@@]23C(/C=C/C[C@H](C)C[C@@](C)(O)/C=C/[C@@H]3OC(C)=O)[C@@H]1O` (stereo partly specified) showed a solubility kinetic of 1.9 µg/mL (≈ 3.85 µM). Work on `O=[S+]([O-])(Nc1cccc2cccnc12)c1ccc(NCc2ccc(Cl)cc2O)cc1` yielded a solubility kinetic of under 1 µg/mL. With `CCOc1ccc(CCNC(=O)c2cc3c(s2)CCC3)cc1OCC` the solubility kinetic was 4.46 µg/mL (≈ 12.4 µM). In the case of `CCCCCOc1ccccc1/C(=C\SC)n1ccnc1`, the solubility kinetic is reported as under 1 µg/mL. `Cn1cc(Br)c(C2N=C(Nc3nc4ccccc4o3)NC3=C2C(=O)CCC3)n1` (stereo unspecified) showed a solubility kinetic of 24.7 µg/mL (≈ 56.1 µM). `Cc1ccc2c(c1)/C(=C\c1cc(Cl)c(O)c(Cl)c1)C(=O)N2` showed a solubility kinetic of 15.4 µg/mL (≈ 48.1 µM). `Cc1cc(Br)ccc1NC(=O)C(NS(=O)(=O)c1cccs1)c1ccccc1` (stereo unspecified) showed a solubility kinetic of under 1 µg/mL. `CCN(CC)CCCCNc1ncc2cc(-c3c(Cl)cccc3Cl)c(NC(=O)NC(C)(C)C)nc2n1` showed a solubility kinetic of 34.7 µg/mL (≈ 65.2 µM). Molecule `O=[S+]([O-])(Nc1nccs1)c1ccc(NCc2cccc(Cl)c2)cc1` has a solubility kinetic of 2.53 µg/mL (≈ 6.67 µM). With `COc1cccc(C(=O)NCCSc2c(-c3ccc(F)cc3)[nH]c3ccccc23)c1OC` the solubility kinetic was under 1 µg/mL. `COc1cccc(NCCC2(c3ccccc3)CC(C)(C)OC(C)(C)C2)c1` showed a solubility kinetic of under 1 µg/mL. In the case of `COc1ccc(-c2nc(-c3c(C)noc3C)cc3c2cc(C)n3CCN(C)C)cc1OC`, the solubility kinetic is reported as over 96 µg/mL. For `O=S(=O)(c1ccc(Cl)cc1)c1ccccn1`, the solubility kinetic was 31.8 µg/mL (≈ 125 µM). `O=C(NC1CC1)c1nc(-c2cccnc2)c2cnccn12` gave a solubility kinetic of 31.6 µg/mL (≈ 113 µM). In the case of `COc1ccc2c(c1)/C(=C/c1cnc[nH]1)C(=O)N2`, the solubility kinetic is reported as over 36 µg/mL. `Fc1cc(Nc2nc(-c3ccncc3)nc3ccccc23)ccc1-c1ccc2[nH]ncc2c1` showed a solubility kinetic of under 1 µg/mL. With `O=C(O)c1ccc(-c2c[nH]c3ncc(-c4ccccc4)cc23)cc1C1CCCC1` the solubility kinetic was 7.57 µg/mL (≈ 19.8 µM). With `Cc1cc(-c2nnc3n2CCCCC3)c(C)n1-c1ccc(Cl)cc1` the solubility kinetic was 25.9 µg/mL (≈ 75.9 µM). In the case of `CC(=O)NC1CCN(c2nc(-c3ccc(Br)cc3)cs2)CC1`, the solubility kinetic is reported as 5.01 µg/mL (≈ 13.2 µM). Work on `CC[C@@H](CO)NC(=O)[C@@H]1C=C2c3cccc4c3c(cn4C)C[C@H]2N(C)C1` yielded a solubility kinetic of over 52 µg/mL.
